Data set [1] in a line: Metabolic stability in human liver microsomes assessed as intrinsic clearance measured for 75 to 130 mins by LC-MS/MS analysis. The following applies: time 75-130 min; for microsomal CLint: liver microsomes, read-out: CLH. In kind it is ADME, Microsome. A general note: Microsomes from liver hold many membrane-bound enzymes, among them those of drug oxidation.
The test system of data set [2] is HCT-116. Briefly: Antiproliferative activity against human HCT-116 cells assessed as remaining cell activity at 2 uM incubated for 72 hrs by luminescence assay relative to control. It is filed as functional.
For data set [3], the system named is A549. The data set can be described thus: Antiproliferative activity against human A549 cells assessed as remaining cell activity at 2 uM incubated for 72 hrs by luminescence assay relative to control. It is filed as functional.
Data set [4] deals with Histone deacetylase 1 (Homo sapiens, UniProt Q13547). Briefly: Inhibition of HDAC1 (unknown origin) using RHKK(Ac)AMC fluorogenic peptide as substrate preincubated for 10 mins followed by substrate addition for 1 hr in presence of ATP by fluoroscence based assay.
The subject of data set [5] is MDA-MB-231. The data set can be described thus: Antiproliferative activity against human MDA-MB-231 cells assessed as remaining cell activity at 2 uM incubated for 72 hrs by luminescence assay relative to control. In kind it is functional.
Data set [6] is described as follows: Metabolic stability in human liver microsomes assessed as half life measured for 75 to 130 mins by LC-MS/MS analysis. As to conditions: time 75-130 min; for half-life: liver microsomes. It is filed as ADME, Microsome.
Data set [7] has as its system TMD8. The data set can be described thus: Antiproliferative activity against human TMD8 cells assessed as remaining cell activity at 2 uM incubated for 72 hrs by luminescence assay relative to control. In kind it is functional.

SMILES strings stand for the structures.

Chain of Histone deacetylase 1 (Q13547 whole entry): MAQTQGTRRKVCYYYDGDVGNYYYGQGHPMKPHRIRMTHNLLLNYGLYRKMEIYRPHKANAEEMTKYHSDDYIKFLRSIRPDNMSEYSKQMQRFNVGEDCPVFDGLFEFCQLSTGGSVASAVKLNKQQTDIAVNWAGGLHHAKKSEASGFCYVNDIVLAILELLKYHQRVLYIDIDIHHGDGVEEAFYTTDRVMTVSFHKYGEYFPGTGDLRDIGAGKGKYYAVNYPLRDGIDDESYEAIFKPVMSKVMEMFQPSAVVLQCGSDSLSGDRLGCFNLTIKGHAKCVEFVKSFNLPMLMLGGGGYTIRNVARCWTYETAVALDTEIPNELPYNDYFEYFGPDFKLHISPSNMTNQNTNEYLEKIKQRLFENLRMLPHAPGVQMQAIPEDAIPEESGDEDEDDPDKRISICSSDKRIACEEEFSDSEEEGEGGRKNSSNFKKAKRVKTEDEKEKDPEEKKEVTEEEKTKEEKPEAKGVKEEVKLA

A word on the IC50: it is the point on the concentration scale where inhibition reaches its midpoint. With `Nc1cc(F)ccc1NC(=O)c1ccc(CN2CC/C(=C\c3ccccn3)C2=O)cc1`, the “Intrinsic clearance in human liver microsomes” value in data set [1] (microsomes) was 10.2 µL/min/mg. Besides, the Activity in data set [2] is 121.48%; in data set [3], 93.24%; in data set [5] it was 83.37%; in data set [7], 29.75%. In addition, the IC50 in data set [4] is 866 nM. Further, the t1/2 in data set [6] (microsomes) was 15.6 h.

With `COc1ccc(/C=C2\CCCN(Cc3ccc(C(=O)Nc4ccc(F)cc4N)cc3)C2=O)cc1`, the IC50 in data set [4] came to 906 nM.

In the case of `Nc1ccccc1NC(=O)c1ccc(CN2CCC/C(=C\c3cccc(Cl)c3)C2=O)cc1`, the concentration for half-maximal inhibition (IC50) in data set [4] amounted to 636 nM.

Take `Nc1cc(F)ccc1NC(=O)c1ccc(CN2CCC/C(=C\c3ccc4ccccc4c3)C2=O)cc1`: the IC50 in data set [4] was 1200 nM.

With `Nc1cc(F)ccc1NC(=O)c1ccc(CN2CCC/C(=C\c3ccco3)C2=O)cc1`, the half-inhibitory concentration (IC50) in data set [4] is 1200 nM.

Turning to `Nc1cc(F)ccc1NC(=O)c1ccc(CN2CCC/C(=C\c3ccc(F)cc3)C2=O)cc1`, in data set [4], the concentration for half-maximal inhibition (IC50) came out at 2630 nM.

Turning to `Nc1cc(F)ccc1NC(=O)c1ccc(CN2CCC/C(=C\c3ccccc3Cl)C2=O)cc1`, in data set [4], the IC50 is 1090 nM.

In general, half-life refers to the time in which the quantity being followed falls by half. With `Nc1ccccc1NC(=O)c1ccc(CN2CCC/C(=C\c3cccnc3)C2=O)cc1`, the microsomal CLint in data set [1] is 5.02 µL/min/mg. The Activity in data set [2] stood at 57.19%; in data set [3], 72.41%; in data set [5] it was 58.3%; in data set [7] it was 23.83%. Further, the half-maximal inhibitory concentration (IC50) in data set [4] came out at 219 nM. The half-life in data set [6] was 4.6 h.

Regarding `Nc1ccccc1NC(=O)c1ccc(CN2CCC/C(=C\c3ccc4ccccc4c3)C2=O)cc1`, in data set [4], the IC50 is 692 nM.

For `Cc1ccccc1/C=C1\CCCN(Cc2ccc(C(=O)Nc3ccc(F)cc3N)cc2)C1=O`, the IC50 in data set [4] was determined as 2450 nM.

On to `Nc1ccccc1NC(=O)c1ccc(CN2CCC/C(=C\c3ccccc3)C2=O)cc1`, for which the microsomal CLint in data set [1] came to 11 µL/min/mg. Moreover, the IC50 in data set [4] was found to be 195 nM. Moreover, the half-life in data set [6] amounted to 2.1 h.

On to `Nc1cc(F)ccc1NC(=O)c1ccc(CN2CCC/C(=C\c3ccc(Cl)cc3)C2=O)cc1`, for which, in data set [4], the IC50 was determined as 617 nM.

`Nc1ccccc1NC(=O)c1ccc(CN2CCC/C(=C\c3ccccc3Cl)C2=O)cc1`: the microsomal CLint in data set [1] turned out to be 9.3 µL/min/mg. Besides, the IC50 in data set [4] was 396 nM. In addition, in data set [6], the half-life is 2.48 h.

As to `Nc1ccccc1NC(=O)c1ccc(CN2CC/C(=C\c3ccccn3)C2=O)cc1`, the Activity in data set [2] is 56.41%; in data set [3], 74.98%; in data set [5], 60.99%; in data set [7], 15.5%. In addition, the IC50 in data set [4] was found to be 82 nM.

As for `Nc1ccccc1NC(=O)c1ccc(CN2CCC/C(=C\c3ccncc3)C2=O)cc1`, the microsomal CLint in data set [1] amounted to 2.96 µL/min/mg. The Activity was 66.57% in data set [2], 98.64% in data set [3], 77.05% in data set [5] and 26.34% in data set [7]. Further, the IC50 in data set [4] came out at 270 nM. For the same compound, the half-life in data set [6] was determined as 7.78 h.

`Cc1cccc(/C=C2\CCCN(Cc3ccc(C(=O)Nc4ccc(F)cc4N)cc3)C2=O)c1`: the IC50 in data set [4] came to 928 nM.

For `Nc1cc(F)ccc1NC(=O)c1ccc(CN2CCC/C(=C\c3ccccc3)C2=O)cc1`, in data set [4], the half-inhibitory concentration (IC50) was determined as 2210 nM.

For the compound `Cc1ccc(/C=C2\CCCN(Cc3ccc(C(=O)Nc4ccc(F)cc4N)cc3)C2=O)cc1`, the concentration for half-maximal inhibition (IC50) in data set [4] was determined as 794 nM.

On to `Cc1ccc(NC(=O)c2ccc(CN3CCC/C(=C\c4ccc(Cl)cc4)C3=O)cc2)c(N)c1`, for which the IC50 in data set [4] was more than 10000 nM.

`Nc1cc(F)ccc1NC(=O)c1ccc(CN2CCC/C(=C\c3ccccn3)C2=O)cc1`: the IC50 in data set [4] stood at 1350 nM.

For the compound `Nc1cc(F)ccc1NC(=O)c1ccc(CN2CCC/C(=C\c3ccncc3)C2=O)cc1`, the IC50 in data set [4] worked out at 2510 nM.

On to `Nc1ccccc1NC(=O)c1ccc(CN2CCC/C(=C\c3ccc(Cl)c(F)c3)C2=O)cc1`, for which, in data set [4], the IC50 stood at 572 nM.

Take `Nc1cc(Br)ccc1NC(=O)c1ccc(CN2CCC/C(=C\c3ccc(Cl)cc3)C2=O)cc1`: the IC50 in data set [4] is more than 10000 nM.

For `Nc1cc(F)ccc1NC(=O)c1ccc(CN2CC/C(=C\c3ccccc3)C2=O)cc1`, the microsomal CLint in data set [1] came out at 11.3 µL/min/mg. In data set [4], the IC50 came out at 424 nM. The half-life in data set [6] came to 2.1 h.

Take `Nc1cc(F)ccc1NC(=O)c1ccc(CN2CCC/C(=C\c3cccnc3)C2=O)cc1`: the half-maximal inhibitory concentration (IC50) in data set [4] stood at 2340 nM.

With `Nc1ccccc1NC(=O)c1ccc(CN2CCC/C(=C\c3ccco3)C2=O)cc1`, the microsomal CLint in data set [1] worked out at 4.45 µL/min/mg. For the same compound, the Activity in data set [2] amounted to 44.43%; in data set [3], 61.8%; in data set [5] it was 53.88%; in data set [7], 5.48%. The 50% inhibitory concentration (IC50) in data set [4] is 303 nM. For the same compound, the half-life in data set [6] is 5.18 h.

On to `Nc1ccccc1NC(=O)c1ccc(CN2CCC/C(=C\c3ccc(Cl)cc3)C2=O)cc1`, for which the microsomal CLint in data set [1] was 9.57 µL/min/mg. In data set [4], the IC50 was 487 nM. Moreover, the half-life in data set [6] was 2.42 h.

As to `Nc1ccccc1NC(=O)c1ccc(CN2CCC/C(=C\c3ccc(Cl)c(C(F)(F)F)c3)C2=O)cc1`, the half-inhibitory concentration (IC50) in data set [4] is 1490 nM.

In the case of `Nc1cc(F)ccc1NC(=O)c1ccc(CN2CCC/C(=C\c3cccc(Cl)c3)C2=O)cc1`, the IC50 in data set [4] came out at 1940 nM.

Consider `Nc1cc(F)ccc1NC(=O)c1ccc(CN2CCC/C(=C\c3ccc(Br)cc3)C2=O)cc1`, for which the 50% inhibitory concentration (IC50) in data set [4] is 1960 nM.
